Measured values published in paper PMC9581132, “Cross clinical-experimental-computational qualification of in silico drug trials on human cardiac purkinje cells for proarrhythmia risk prediction” (Frontiers in Toxicology, 2022).
Entries after “also recorded” stand apart in the source; their conditions may differ. Like-named read-outs stand apart in the source and are kept apart here.

Assays:
[1] = test system: rabbit Purkinje fibers; assay: In vitro drug assay on rabbit Purkinje fibers (microelectrode AP recordings); conditions: for EADs occurrence in rabbit experiments / Risk classification based on EADs occurrence, in vitro rabbit: slow pacing; for EADs occurrence in rabbit experiments: across tested concentrations; for Risk classification based on EADs occurrence, in vitro rabbit: compared with clinical risk; for ΔAPD90 Exp: Normal pacing (1 Hz)
[2] = target: T1, hKv4.3 (Homo sapiens, UniProt Q9UK17); assay: Automated patch clamp (QPatch), transient outward K+ current Ito; assay type: cell-based; conditions: room temperature; dash = no effect or IC50 much higher than tested concentrations
T1 construct: expressed in transfected cells; host or cells: HEK-293
T1 sequence (Q9UK17 1-655): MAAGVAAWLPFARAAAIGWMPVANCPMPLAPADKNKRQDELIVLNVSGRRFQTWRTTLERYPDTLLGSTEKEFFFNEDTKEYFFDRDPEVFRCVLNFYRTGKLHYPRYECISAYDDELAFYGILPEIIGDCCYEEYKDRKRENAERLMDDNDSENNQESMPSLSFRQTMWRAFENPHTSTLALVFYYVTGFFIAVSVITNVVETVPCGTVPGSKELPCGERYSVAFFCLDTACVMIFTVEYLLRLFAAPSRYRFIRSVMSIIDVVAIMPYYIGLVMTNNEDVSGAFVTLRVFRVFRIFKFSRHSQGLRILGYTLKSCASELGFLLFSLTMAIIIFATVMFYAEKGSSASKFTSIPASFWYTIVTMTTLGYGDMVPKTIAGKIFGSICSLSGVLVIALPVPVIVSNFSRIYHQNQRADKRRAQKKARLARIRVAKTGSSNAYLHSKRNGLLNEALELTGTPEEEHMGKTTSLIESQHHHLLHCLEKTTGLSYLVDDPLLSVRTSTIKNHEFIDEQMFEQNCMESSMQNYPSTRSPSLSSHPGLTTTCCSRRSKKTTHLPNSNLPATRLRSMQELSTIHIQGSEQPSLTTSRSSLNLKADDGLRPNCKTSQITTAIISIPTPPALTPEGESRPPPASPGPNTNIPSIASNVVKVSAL

[3] = target: T2, hCav1.2 (Homo sapiens, UniProt Q13936); assay: Automated patch clamp (QPatch), L-type Ca2+ current ICaL; assay type: cell-based; conditions: room temperature; dash = no effect or IC50 much higher than tested concentrations
T2 construct: expressed in transfected cells; host or cells: CHO
T2 sequence (Q13936 whole entry): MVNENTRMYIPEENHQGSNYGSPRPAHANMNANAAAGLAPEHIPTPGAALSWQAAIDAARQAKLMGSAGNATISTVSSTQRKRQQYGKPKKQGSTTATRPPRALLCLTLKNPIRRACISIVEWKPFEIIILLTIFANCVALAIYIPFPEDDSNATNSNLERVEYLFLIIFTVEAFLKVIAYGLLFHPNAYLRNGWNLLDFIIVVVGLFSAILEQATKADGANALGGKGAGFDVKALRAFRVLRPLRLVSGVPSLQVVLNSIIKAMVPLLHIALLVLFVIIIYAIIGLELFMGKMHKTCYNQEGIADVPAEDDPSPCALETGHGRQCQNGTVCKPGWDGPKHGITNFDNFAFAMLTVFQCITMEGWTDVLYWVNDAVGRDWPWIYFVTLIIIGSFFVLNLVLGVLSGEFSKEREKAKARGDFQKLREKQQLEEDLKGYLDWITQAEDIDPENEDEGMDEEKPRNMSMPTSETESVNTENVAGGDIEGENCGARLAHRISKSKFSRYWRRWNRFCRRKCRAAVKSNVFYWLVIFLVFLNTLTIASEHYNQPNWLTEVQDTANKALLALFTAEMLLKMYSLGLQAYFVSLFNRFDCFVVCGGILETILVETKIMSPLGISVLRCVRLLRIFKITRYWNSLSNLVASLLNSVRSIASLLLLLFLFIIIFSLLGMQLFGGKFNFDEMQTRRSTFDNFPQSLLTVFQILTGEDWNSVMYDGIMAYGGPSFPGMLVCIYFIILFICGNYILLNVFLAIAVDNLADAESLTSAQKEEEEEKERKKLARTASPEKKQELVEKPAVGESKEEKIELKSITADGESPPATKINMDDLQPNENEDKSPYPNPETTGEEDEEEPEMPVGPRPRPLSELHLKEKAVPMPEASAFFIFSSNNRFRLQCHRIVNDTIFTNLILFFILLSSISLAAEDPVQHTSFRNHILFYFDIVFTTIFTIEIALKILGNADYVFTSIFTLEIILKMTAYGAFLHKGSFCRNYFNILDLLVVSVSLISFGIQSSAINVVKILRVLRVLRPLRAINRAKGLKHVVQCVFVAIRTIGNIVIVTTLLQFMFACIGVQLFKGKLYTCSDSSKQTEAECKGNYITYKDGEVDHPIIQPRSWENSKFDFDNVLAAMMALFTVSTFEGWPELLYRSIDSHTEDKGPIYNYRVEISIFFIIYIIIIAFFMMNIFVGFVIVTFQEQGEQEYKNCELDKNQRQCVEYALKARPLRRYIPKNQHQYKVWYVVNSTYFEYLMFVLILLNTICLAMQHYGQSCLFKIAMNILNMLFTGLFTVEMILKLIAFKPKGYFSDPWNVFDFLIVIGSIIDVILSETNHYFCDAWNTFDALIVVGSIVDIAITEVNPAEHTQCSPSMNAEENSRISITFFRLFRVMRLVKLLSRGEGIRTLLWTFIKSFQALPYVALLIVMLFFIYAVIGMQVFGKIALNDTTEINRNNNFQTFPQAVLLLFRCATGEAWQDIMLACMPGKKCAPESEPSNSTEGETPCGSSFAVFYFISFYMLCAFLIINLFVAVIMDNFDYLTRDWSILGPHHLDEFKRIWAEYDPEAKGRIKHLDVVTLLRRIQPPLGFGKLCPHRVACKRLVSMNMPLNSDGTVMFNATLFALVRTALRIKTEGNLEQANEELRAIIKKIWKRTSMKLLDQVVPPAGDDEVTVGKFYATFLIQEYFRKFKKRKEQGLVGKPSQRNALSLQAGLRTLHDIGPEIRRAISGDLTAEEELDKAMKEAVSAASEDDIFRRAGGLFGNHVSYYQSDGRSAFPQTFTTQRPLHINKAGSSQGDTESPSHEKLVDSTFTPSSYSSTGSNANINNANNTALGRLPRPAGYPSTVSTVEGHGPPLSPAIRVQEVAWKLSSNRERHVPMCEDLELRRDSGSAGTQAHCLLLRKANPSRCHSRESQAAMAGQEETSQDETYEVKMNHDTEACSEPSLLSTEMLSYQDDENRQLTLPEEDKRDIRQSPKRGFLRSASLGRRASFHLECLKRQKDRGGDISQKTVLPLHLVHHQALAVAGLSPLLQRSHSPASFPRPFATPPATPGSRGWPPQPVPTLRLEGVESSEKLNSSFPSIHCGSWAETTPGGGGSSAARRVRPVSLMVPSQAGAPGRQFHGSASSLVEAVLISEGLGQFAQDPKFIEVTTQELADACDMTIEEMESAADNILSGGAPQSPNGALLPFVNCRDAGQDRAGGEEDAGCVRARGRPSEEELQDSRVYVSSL

[4] = design: method as in Woosley and Romer, 1999; key: 1: Known risk; 2: Conditional risk; NC: Not classified, i.e., evidence was not enough to add it to any risk category; conditions: CredibleMeds category; ref Woosley and Romer, 1999; cited from earlier work
[5] = test system: rabbit hearts; conditions: cited from earlier work
[6] = target: T3, hNav1.5 (Homo sapiens, UniProt Q14524); assay: Automated patch clamp (QPatch), fast Na+ current INa; assay type: cell-based; conditions: room temperature; dash = no effect or IC50 much higher than tested concentrations
T3 construct: expressed in transfected cells; host or cells: HEK-293
T3 sequence (Q14524 whole entry): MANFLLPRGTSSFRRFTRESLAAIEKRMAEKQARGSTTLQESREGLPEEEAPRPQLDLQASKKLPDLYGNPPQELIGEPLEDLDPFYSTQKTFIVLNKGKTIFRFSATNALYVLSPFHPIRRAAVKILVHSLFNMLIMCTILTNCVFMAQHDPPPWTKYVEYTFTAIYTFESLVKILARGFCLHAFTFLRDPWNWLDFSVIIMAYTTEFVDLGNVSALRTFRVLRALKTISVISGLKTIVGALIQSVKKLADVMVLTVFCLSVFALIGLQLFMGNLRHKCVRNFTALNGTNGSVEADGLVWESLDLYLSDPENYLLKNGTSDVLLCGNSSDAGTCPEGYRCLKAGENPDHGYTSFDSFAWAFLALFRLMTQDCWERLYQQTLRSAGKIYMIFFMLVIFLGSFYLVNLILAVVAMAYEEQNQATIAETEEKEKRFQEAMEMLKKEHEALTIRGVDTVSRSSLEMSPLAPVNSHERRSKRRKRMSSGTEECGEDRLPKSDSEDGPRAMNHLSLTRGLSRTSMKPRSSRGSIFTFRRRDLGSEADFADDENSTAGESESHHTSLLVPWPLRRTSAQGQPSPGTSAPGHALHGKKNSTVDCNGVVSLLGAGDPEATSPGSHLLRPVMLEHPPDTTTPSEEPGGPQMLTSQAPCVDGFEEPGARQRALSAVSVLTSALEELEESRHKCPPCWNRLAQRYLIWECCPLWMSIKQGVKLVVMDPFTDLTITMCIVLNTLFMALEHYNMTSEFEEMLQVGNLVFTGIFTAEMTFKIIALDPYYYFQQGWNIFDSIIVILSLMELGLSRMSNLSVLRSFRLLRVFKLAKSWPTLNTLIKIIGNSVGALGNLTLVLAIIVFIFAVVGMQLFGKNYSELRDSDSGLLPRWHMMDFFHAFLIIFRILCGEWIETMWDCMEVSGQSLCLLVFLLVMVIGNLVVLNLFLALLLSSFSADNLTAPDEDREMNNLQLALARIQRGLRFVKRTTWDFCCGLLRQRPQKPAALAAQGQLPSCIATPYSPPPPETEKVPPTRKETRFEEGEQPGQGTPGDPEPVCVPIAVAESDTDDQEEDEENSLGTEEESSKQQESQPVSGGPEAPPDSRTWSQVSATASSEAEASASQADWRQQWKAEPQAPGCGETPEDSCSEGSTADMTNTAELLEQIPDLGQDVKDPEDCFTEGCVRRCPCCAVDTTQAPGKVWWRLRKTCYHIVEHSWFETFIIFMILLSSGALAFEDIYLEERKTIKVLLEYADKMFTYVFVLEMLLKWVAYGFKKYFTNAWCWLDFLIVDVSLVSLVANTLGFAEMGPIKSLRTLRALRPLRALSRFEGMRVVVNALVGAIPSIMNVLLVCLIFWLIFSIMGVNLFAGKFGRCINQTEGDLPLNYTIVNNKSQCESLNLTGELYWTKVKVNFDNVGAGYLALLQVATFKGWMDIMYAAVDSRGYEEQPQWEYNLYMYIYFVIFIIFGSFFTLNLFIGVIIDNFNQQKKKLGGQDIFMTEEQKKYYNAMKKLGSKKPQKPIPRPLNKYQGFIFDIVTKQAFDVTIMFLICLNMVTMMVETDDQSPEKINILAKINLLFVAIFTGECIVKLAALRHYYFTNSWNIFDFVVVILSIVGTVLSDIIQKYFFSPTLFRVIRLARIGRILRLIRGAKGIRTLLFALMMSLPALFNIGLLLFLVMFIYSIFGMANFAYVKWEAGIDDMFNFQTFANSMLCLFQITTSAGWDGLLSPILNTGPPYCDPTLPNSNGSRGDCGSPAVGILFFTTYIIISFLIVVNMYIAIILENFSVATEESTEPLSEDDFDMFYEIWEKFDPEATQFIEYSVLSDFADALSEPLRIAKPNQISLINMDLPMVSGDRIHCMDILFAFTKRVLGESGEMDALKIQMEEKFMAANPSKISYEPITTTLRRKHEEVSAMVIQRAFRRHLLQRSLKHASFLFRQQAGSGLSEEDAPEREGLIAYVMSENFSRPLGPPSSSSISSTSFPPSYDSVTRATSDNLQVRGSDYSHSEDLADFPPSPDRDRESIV

[7] = target: T4, hERG (Homo sapiens, UniProt Q12809); conditions: ref Crumb et al., 2016; cited from earlier work
T4 construct: host or cells: CHO (hERG-CHO) and HEK-293 stably transfected with hERG cDNA

[8] = target: T3, hNav1.5; design: method as in Crumb et al., 2016; conditions: ref Crumb et al., 2016; cited from earlier work
[9] = target: T2, hCav1.2; conditions: ref Crumb et al., 2016; cited from earlier work
[10] = design: method as in Démolis et al., 2003; conditions: therapeutic doses; ref Démolis et al., 2003; cited from earlier work
[11] = test system: hiPSC-CMs; conditions: 100 µM; ref Blinova et al., 2018; Yu et al., 2019; cited from earlier work

Row | Structure (SMILES) | EADs occurrence in rabbit experiments [1] | Risk classification based on EADs occurrence, in vitro rabbit [1] | IC50 [2] | TdP risk [4] | further results
1 | CC(C)(C)c1ccc(C(O)CCCN2CCC(C(O)(c3ccccc3)c3ccccc3)CC2)cc1 (stereo not drawn) [Terfenadine] | no EADs were observed | misclassified | 68 µM | – | Risk classification based on mean APD90 prolongation >10%, in vitro rabbit ([1]; 1 Hz): false negative; AP prolongation in vitro rabbit experiments ([1]; APD90 at 1 Hz, maximum over tested concentrations): up to 7%
2 | CC(C)N(CCC(C(N)=O)(c1ccccc1)c1ccccn1)C(C)C (stereo not drawn) [Disopyramide] | – | – | – | 1 | IC50 [3]: 114 µM
3 | CN(CCOc1ccc(NS(C)(=O)=O)cc1)CCc1ccc(NS(C)(=O)=O)cc1 [Dofetilide] | – | – | – | 1 | ΔAPD90 Exp ([1]; 0.01 μM): 113%
4 | COc1cc(N)c(Cl)cc1C(=O)NC1CCN(CCCOc2ccc(F)cc2)CC1OC (stereo not drawn) [Cisapride] | induced EADs | – | – | 1 | IC50 [3]: 33 µM
5 | C=C[C@H]1C[N@@]2CC[C@H]1C[C@@H]2[C@@H](O)c1ccnc2ccc(OC)cc12 [Quinidine] | – | – | – | 1 | –
6 | COc1ccc([C@@H]2Sc3ccccc3N(CCN(C)C)C(=O)[C@@H]2OC(C)=O)cc1 [Diltiazem] | did not induce any EADs; also recorded: did not induce any repolarization abnormalities | correctly classified as safe | 84 µM | – | –
7 | CC(C)NCC(O)c1ccc(NS(C)(=O)=O)cc1 (stereo not drawn) [Sotalol] | – | – | – | – | ΔAPD90 Exp ([1]; 30 μM): 96%
8 | CC(C)COCC(CN(Cc1ccccc1)c1ccccc1)N1CCCC1 (stereo not drawn) [Bepridil] | no EADs were observed | misclassified | 13 µM | 1 | EADs in rabbit hearts ([5]; up to 10 µM, ref Anno et al., 1984, Hondeghem et al., 2003): did not induce EADs; IC50 [6]: 3.1 µM
9 | CC[C@H]1OC(=O)[C@H](C)[C@@H](O[C@H]2C[C@@](C)(OC)[C@@H](O)[C@H](C)O2)[C@H](C)[C@@H](O[C@@H]2O[C@H](C)C[C@H](N(C)C)[C@H]2O)[C@](C)(OC)C[C@@H](C)C(=O)[C@H](C)[C@@H](O)[C@]1(C)O [Clarithromycin] | – | – | – | 1 | IC50 [7]: 62.5 µM; ΔAPD90 Exp ([1]; 30 μM): 51%; IC50 [8]: 163 µM; IC50 [9]: 103 µM; QT prolongation [10]: no QT prolongation at therapeutic doses
10 | Cc1nc2n(c(=O)c1CCN1CCC(c3noc4cc(F)ccc34)CC1)CCCC2 [Risperidone] | – | – | – | 2 | –
11 | COc1ccc(CCN2CCC(Nc3nc4ccccc4n3Cc3ccc(F)cc3)CC2)cc1 [Astemizole] | induced EADs | – | 22 µM | 1 | –
12 | COc1ccccc1OCC(O)CN1CCN(CC(=O)Nc2c(C)cccc2C)CC1 (stereo not drawn) [Ranolazine] | no EADs were observed | misclassified | – | 2 | Effect in rabbit hearts ([5]; 10 µM, ref Frommeyer et al., 2012, Sossalla et al., 2014): anti-torsadogenic effects; IC50 [3]: 156 µM; EADs in hiPSC-CMs [11]: induced EADs
13 | COC(=O)C1=C(C)NC(C)=C(C(=O)OC)C1c1ccccc1[N+](=O)[O-] [Nifedipine] | did not induce any EADs | correctly classified as safe | 31 µM | – | –
